Results: patent US20170190671A1, “BIS(ARYL)CATECHOL DERIVATIVES AS HERBICIDES” (E I DU PONT DE NEMOURS AND COMPANY, priority 2014, published 2017)

Key:
Assay type in all cases: in vivo
[1] = system: Italian ryegrass (Lolium multiflorum); assay: Test C postemergence; conditions: Lolium multiflorum, post-emergence, 336 h, Postemergence, scale 0 to 100, read-out: Plant response rating, Ryegrass, Italian
Outline: (§1)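 Greenhouse test, preemergence on seeded soil or postemergence on 1- to 4-leaf plants. Response is a visual 0-100 rating versus controls, taken 13-15 days after treatment.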

[2] = system: barnyardgrass (Echinochloa crus-galli); assay: Test C postemergence; conditions: Echinochloa crus-galli, post-emergence, Postemergence, scale 0 to 100, read-out: Plant response rating, Barnyardgrass
Outline: as §1

[3] = system: blackgrass (Alopecurus myosuroides); assay: Test C postemergence; conditions: Alopecurus myosuroides, post-emergence, 336 h, Postemergence, scale 0 to 100, read-out: Plant response rating, Blackgrass
Outline: as §1

corn (Zea mays) = assay: Test C postemergence; conditions: Zea mays, post-emergence, 336 h, Postemergence, scale 0 to 100
Outline: as §1

[4] = system: giant foxtail (Setaria faberii); assay: Test C postemergence; conditions: Setaria faberi, post-emergence, 336 h, Postemergence, scale 0 to 100, read-out: Plant response rating, Foxtail, Giant
Outline: as §1

[5] = system: johnsongrass (Sorghum halepense); assay: Test C postemergence; conditions: Sorghum halepense, post-emergence, 336 h, Postemergence, scale 0 to 100, read-out: Plant response rating, Johnsongrass
Outline: as §1

[6] = system: lambsquarters (Chenopodium album); assay: Test C postemergence; conditions: Chenopodium album, post-emergence, 336 h, Postemergence, scale 0 to 100, read-out: Plant response rating, Lambsquarters
Outline: as §1

[7] = system: large (Lg) crabgrass (Digitaria sanguinalis); assay: Test C postemergence; conditions: Digitaria sanguinalis, post-emergence, 336 h, Postemergence, scale 0 to 100, read-out: Plant response rating, Crabgrass, Large
Outline: as §1

[8] = system: morningglory (Ipomoea coccinea); assay: Test C postemergence; conditions: Ipomoea, post-emergence, 336 h, Postemergence, scale 0 to 100, read-out: Plant response rating, Morningglory
Outline: as §1

[9] = system: oilseed rape (Brassica napus); assay: Test C postemergence; conditions: Brassica napus, post-emergence, Postemergence, scale 0 to 100, read-out: Plant response rating, Oilseed Rape
Outline: as §1

[10] = system: ragweed (common ragweed, Ambrosia elatior); assay: Test C postemergence; conditions: Ambrosia artemisiifolia, post-emergence, 336 h, Postemergence, scale 0 to 100, read-out: Plant response rating, Ragweed
Outline: as §1

soybean (Glycine max) = assay: Test C postemergence; conditions: Glycine max, post-emergence, Postemergence, scale 0 to 100, read-out: Plant response rating, Soybean
Outline: as §1

[11] = system: velvetleaf (Abutilon theophrasti); assay: Test C postemergence; conditions: Abutilon theophrasti, post-emergence, Postemergence, scale 0 to 100, read-out: Plant response rating, Velvetleaf
Outline: as §1

[12] = system: winter wheat (Triticum aestivum); assay: Test C postemergence; conditions: Triticum aestivum, post-emergence, 336 h, Postemergence, scale 0 to 100, read-out: Plant response rating, Wheat
Outline: as §1

[13] = system: arrowleaf sida (Sida rhombifolia); assay: Test E preemergence; conditions: scale 0 to 100
Text: Seeds of plant species selected from corn (Zea mays), soybean (Glycine max), velvetleaf (Abutilon theophrasti), cocklebur (common cocklebur, Xanthium strumarium), lambsquarters (Chenopodium album), wild poinsettia (Euphorbia heterophylla), palmer pigweed (Amaranthus palmeri), waterhemp (common waterhemp, Amaranthus rudis), surinam grass (Brachiaria decumbens), large (Lg) crabgrass (Digitaria sanguinalis), Brazilian crabgrass (Digitaria horizontalis), fall panicum (Panicum dichotomiflorum), giant foxtail (Setaria faberii), green foxtail (Setaria viridis), goosegrass (Eleusine indica), johnsongrass (Sorghum halepense), ragweed (common ragweed, Ambrosia elatior), barnyardgrass (Echinochloa crus-galli), sandbur (southern sandbur, Cenchrus echinatus), arrowleaf sida (Sida rhombifolia), Italian ryegrass (Lolium multiflorum), dayflower (Virginia (VA) dayflower, Commelina virginica), field bindweed (Convolvulus arvensis), morningglory (Ipomoea coccinea), nightshade (eastern black nightshade, Solanum ptycanthum), kochia (Kochia scoparia), yellow nutsedge (Cyperus esculentus), horseweed (Conyza canadensis), and hairy beggarticks (Bidens pilosa), were planted into a silt loam soil and treated preemergence with test chemicals formulated in a non-phytotoxic solvent mixture which included a surfactant.
At the same time, plants from these crop and weed species and also waterhemp_RES1, (ALS & Triazine resistant common waterhemp, Amaranthus rudis), and waterhemp_RES2, (ALS & HPPD resistant common waterhemp, Amaranthus rudis) were planted in pots containing Redi-Earth® planting medium (Scotts Company, 14111 Scottslawn Road, Marysville, Ohio 43041) comprising spaghnum peat moss, vermiculite, wetting agent and starter nutrients were treated with postemergence applications of test chemicals formulated in the same manner. Plants ranged in height from 2 to 18 cm for postemergence treatments (1- to 4-leaf stage). Treated plants and controls were maintained in a greenhouse for 14 to 21 days, after which time all species were compared to controls and visually evaluated. Plant response ratings, summarized in Table E, are based on a scale of 0 to 100 where 0 is no effect and 100 is complete control. A dash (-) response means no test result.

Fc1cccc(Oc2ncc(Cl)cn2)c1Oc1ncc(Cl)cn1 [Compound 21, 2,2′-[[3-fluoro-1,2-phenylene]bis(oxy)]bis[5-chloropyrimidine]]
60%: plant injury at 62 g/ha ([9]; 62 g ai/ha) | pest or weed control at 62 g/ha ([10]; 62 g ai/ha)
15%: pest or weed control at 16 g/ha ([6]; 16 g ai/ha) | pest or weed control at 125 g/ha ([7]; 125 g ai/ha)
30%: pest or weed control at 31 g/ha ([10]; 31 g ai/ha)
70%: pest or weed control at 125 g/ha ([3]; 125 g ai/ha) | pest or weed control at 31 g/ha ([6]; 31 g ai/ha) | pest or weed control at 62 g/ha ([8]; 62 g ai/ha) | pest or weed control at 125 g/ha ([11]; 125 g ai/ha)
100: Plant response rating, Arrowleaf Sida ([13]; 31 g ai/ha) | Plant response rating, Arrowleaf Sida ([13]; 62 g ai/ha) | Plant response rating, Arrowleaf Sida ([13]; 125 g ai/ha)
55%: plant injury at 31 g/ha ([9]; 31 g ai/ha)
90%: pest or weed control at 125 g/ha ([6]; 125 g ai/ha)
25%: pest or weed control at 125 g/ha ([1]; 125 g ai/ha)
50%: pest or weed control at 31 g/ha ([11]; 31 g ai/ha)
95%: pest or weed control at 125 g/ha ([10]; 125 g ai/ha) | plant injury at 62 g/ha (soybean (Glycine max); 62 g ai/ha) | plant injury at 125 g/ha (soybean (Glycine max); 125 g ai/ha)
65%: pest or weed control at 31 g/ha ([8]; 31 g ai/ha) | plant injury at 31 g/ha (soybean (Glycine max); 31 g ai/ha) | pest or weed control at 62 g/ha ([11]; 62 g ai/ha)
90: Plant response rating, Arrowleaf Sida ([13]; 16 g ai/ha)
0%: pest or weed control at 31 g/ha ([1]; 31 g ai/ha) | pest or weed control at 62 g/ha ([1]; 62 g ai/ha) | Corn plant response rating (crop injury, 0 = no effect, 100 = complete kill) at 16 g/ha (corn (Zea mays); 16 g ai/ha) | plant injury at 31 g/ha ([12]; 31 g ai/ha) | plant injury at 62 g/ha ([12]; 62 g ai/ha)
98%: pest or weed control at 62 g/ha ([6]; 62 g ai/ha) | pest or weed control at 125 g/ha ([8]; 125 g ai/ha)
5%: pest or weed control at 16 g/ha ([2]; 16 g ai/ha) | pest or weed control at 31 g/ha ([2]; 31 g ai/ha) | pest or weed control at 62 g/ha ([2]; 62 g ai/ha) | pest or weed control at 125 g/ha ([2]; 125 g ai/ha) | pest or weed control at 16 g/ha ([3]; 16 g ai/ha) | pest or weed control at 31 g/ha ([3]; 31 g ai/ha) | Corn plant response rating (crop injury, 0 = no effect, 100 = complete kill) at 31 g/ha (corn (Zea mays); 31 g ai/ha) | Corn plant response rating (crop injury, 0 = no effect, 100 = complete kill) at 62 g/ha (corn (Zea mays); 62 g ai/ha) | Corn plant response rating (crop injury, 0 = no effect, 100 = complete kill) at 125 g/ha (corn (Zea mays); 125 g ai/ha) | pest or weed control at 16 g/ha ([4]; 16 g ai/ha) | pest or weed control at 31 g/ha ([4]; 31 g ai/ha) | pest or weed control at 16 g/ha ([5]; 16 g ai/ha) | pest or weed control at 31 g/ha ([5]; 31 g ai/ha) | pest or weed control at 62 g/ha ([5]; 62 g ai/ha) | pest or weed control at 125 g/ha ([5]; 125 g ai/ha) | pest or weed control at 16 g/ha ([7]; 16 g ai/ha) | pest or weed control at 31 g/ha ([7]; 31 g ai/ha) | pest or weed control at 62 g/ha ([7]; 62 g ai/ha) | plant injury at 125 g/ha ([12]; 125 g ai/ha)
20%: pest or weed control at 62 g/ha ([3]; 62 g ai/ha) | pest or weed control at 62 g/ha ([4]; 62 g ai/ha) | pest or weed control at 125 g/ha ([4]; 125 g ai/ha)
80%: plant injury at 125 g/ha ([9]; 125 g ai/ha)
